Reference: article PMC7392018, “A general-purpose Nanohybrid fabricated by Polymeric Au(I)-peptide precursor to wake the function of Peptide Therapeutics” (Theranostics, 2020)

Assays:
chymotrypsin = assay: Proteolysis resistance to chymotrypsin by HPLC; assay type: in vitro ADME; settings: chymotrypsin with 10% serum in PBS, PBS containing 10 mM oxidized glutathione, 0.5 mg/ml chymotrypsin, read-out: t1/2 of proteolysis (converted)
Method: Figure 3 The colloidal peptide-auric SNH is stable and proteolytically resistant. (A) The physicochemical properties of the three peptide and the schematic diagram of three peptide-Auric SNH. (B-D) The dimensional change of Pep-AuNPs and Pep-Au SNH with time in PBS (pH7.4) or PBS including 20% FBS and 50 µM GSH to simulate extracellular physiological environment. (E-G) Proteolysis resistance of Pep-SH, Pep-AuNPs and Pep-Au SNH under PBS containing 10 mM oxidized glutathione, 10% serum, and 0.5 mg/ml chymotrypsin.
Linear peptides are conformationally disordered in aqueous solutions under their own steam and, consequently, tendentious to proteolysis. Conjugation of peptides with nanoparticles would improve steric hindrance against peptidase, resulting in the resistance to proteolysis, [44]. We comparatively quantified the susceptibility of Pep-AuNPs and Pep-Au SNH to chymotrypsin using HPLC (Figure 3E-G).
Fi g u re S 9. (A) The dimensional change of PMI- Au SNH with time in PBS or PBS including 20%
FBS and 50μM GSH at pH 7.4 or 4.0 to simulate extracellular physiological environment. ( B)
Proteolysis resistance of Pep-Au SNH under PBS at pH 7.4 or 4.0 containing 10 mM oxidized
glutathione, 10% serum, and 0.5 mg/ml chymotrypsin. (C) ICP- MS quantification of gold content
(from PMI- Au SNH) in stomach, colon and blood collected from health c57/b6 mice. The data […]

In vivo toxicity study = settings: 2.5 mg/kg every other day for 12 days, HCT116 xenograft mice; PMI-Au SNH intraperitoneally, intravenously or intragastrically
Method: To evaluate the toxicity of PMI-Au SNH including the nephrotoxicity in vivo, we carried out a comprehensive toxicity study using the subcutaneous xenograft model of HCT116 tumors from efficacy studies. PMI-Au SNH was intraperitoneally, intravenously or intragastrically injected, every other day for a duration of 12 days, at a dose of 2.5 mg/kg, with saline, ^ctrlPMI-Au SNH and DOX as controls. […] The safety of both PMI-Au SNH and ^ctrlPMI-Au SNH and toxicity of DOX were further confirmed by changes, or lack thereof, in the function of the liver and kidney (Figure 9A-G), in the weight and H&E staining of spleen (Figure 9H-I) and in the number of white blood cells and thrombocytes (Figure S11). Moreover, heart function (Figure S12), the level of red blood cells (Figure S13) and the histological H&E staining of lung (Figure S14) supported the above findings and the conclusion that PMI-Au SNH is sufficiently safe with a significant therapeutic potential. […]
intense staining. […]
To assess potential toxicities of repeatedly infusing PMI-Au SNH, we monitored body weight of all mice over the course of treatment and measured hematological indexes as well as organ function indexes after 13- day treatment. […]

half-life (chymotrypsin)	SMILES	body weight change (In vivo toxicity study)
9 ± 0.6 min	CC(=O)N[C@H](C(=O)N[C@@H](CO)C(=O)N[C@@H](Cc1ccccc1)C(=O)N[C@@H](C)C(=O)N[C@@H](CCC(=O)O)C(=O)N[C@@H](Cc1ccc(O)cc1)C(=O)N[C@@H](Cc1c[nH]c2ccccc12)C(=O)N[C@@H](C)C(=O)N[C@@H](CC(C)C)C(=O)N[C@@H](CC(C)C)C(=O)N[C@@H](CO)C(=O)N1CCC[C@H]1C(=O)N[C@@H](CS)C(=O)O)[C@@H](C)O [PMI-SH]	–
–	COc1cccc2c1C(=O)c1c(O)c3c(c(O)c1C2=O)C[C@@](O)(C(=O)CO)C[C@@H]3O[C@H]1C[C@H](N)[C@H](O)[C@H](C)O1 [DOX, doxorubicin]	significant loss of body weight
